Laboratory results taken from patent US7462598B2, “Antimicrobial theta defensins, analogs thereof, and methods of use” (priority 2002, dated 2008).
Bridge positions count the residues as written; N and C are the ends. Peptide text beside a SMILES is read from it.

Key:
E. coli ML35 [1] = test: Microbicidal assay by colony counting (Example I); type: cell-based, Escherichia coli
Protocol: The limit of detection (1 colony per plate) was equal to 1×10^3 CFU/ml in the incubation mixture.
Microbicidal activity of each peptide was determined by incubating 2×10^6 CFU/ml with peptides (0.5-12 μg/ml) in 50 μl of 10 mM PIPES buffer containing 5 mM glucose, pH 7.4. […] After 37° C. incubation for 18-48 h, colonies were counted and cell survival was expressed as CFU/ml.

E. coli ML35 [2] = test: Membrane permeabilization assay (ONPG hydrolysis); type: cell-based, Escherichia coli; conditions: rates at 1 μg/ml concentration of each peptide
Method in brief: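 ONPG hydrolysis by log-phase E. coli ML35 (1×10^6 CFU/ml) in 10 mM PIPES pH 7.4 with 3 mM ONPG, peptides at 0-8.0 μg/ml final; A405 followed for 60 min. Control: 0-4 μg/ml peptide incubated with recombinant β-galactosidase and 3 mM ONPG.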

[3] = target: T1, recombinant β-galactosidase (Escherichia coli, UniProt P00722); test: Inhibition of purified β-galactosidase (ONPG hydrolysis); type: biochemical; conditions: 4 μg/ml, the highest peptide concentration tested; 10 nM enzyme
T1 construct: gift from Dr. Donald P. Satchell, University of California, Irvine, Department of Pathology
Protocol: Dose-dependent rates of ONPG hydrolysis were determined using 10 nM of purified β-galactosidase.
The effect of each peptide on β-galactosidase-dependent ONPG hydrolysis was determined by incubating 0-4 μg/ml of each peptide with recombinant β-galactosidase (a gift from Dr. Donald P. Satchell, University of California, Irvine, Department of Pathology) and 3 mM ONPG as described above.

C. albicans 16820 = test: Cell-suspension microbicidal assay (MMC); type: cell-based, Candida albicans; conditions: lowest concentration that reduced cell viability by 99.9%; 10 mM PIPES, 5 mM glucose, pH 7.4; 2 h 37° C.
Method in brief: (§1)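 Log-phase microbes (2×10^6 CFU/ml) exposed to two-fold peptide dilutions (0.062-8.0 μg/ml) in 10 mM PIPES, 5 mM glucose, pH 7.4, 2 h at 37 °C, then diluted 1:10 to 1:10^6 in broth and grown 24-48 h. MMC is the lowest concentration giving ≥99.9% killing (no pellet at 1:10^3).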

E. coli ML35 [4] = test: Agar diffusion assay; type: cell-based, Escherichia coli; conditions: diameter of clearing, FIG. 3
Protocol: Briefly, 10-μl wells were bored in a 9-cm^2 plate of agarose, buffered with 10 mM 1,4-piperazinebis(ethanesulfonic acid) (PIPES), pH 7.4, containing 5 mM glucose, and seeded with 1×10^6 mid-log phase cells. Five-μl aliquots of peptides, dissolved in 0.01% HOAc at 10-300 μg/ml, were added to each well. After incubation at 37° C. for 2 h, the seeded agar was overlaid with molten agarose containing 6% trypticase soy broth (for bacteria) or Sabouraud dextrose broth (for fungi). Plates were incubated at 37° C. for 18-24 h, and antimicrobial activity was determined by measuring the diameter of clearing around each well.

S. aureus 502a = test: Cell-suspension microbicidal assay (MMC); type: cell-based, Staphylococcus aureus; conditions: lowest concentration that reduced cell viability by 99.9%; 10 mM PIPES, 5 mM glucose, pH 7.4; 2 h 37° C.
Method in brief: as §1

[5] = tested on: S. aureus 502a, E. coli ML35, and C. albicans 16820; test: Cell-suspension microbicidal assay, statements across the test organisms (lowest MMC, overall ranges); type: cell-based
Method in brief: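 Log-phase organisms (2×10^6 CFU/ml) were exposed for 2 h at 37° C. to peptide (0.062–8.0 μg/ml final) in 10 mM PIPES/5 mM glucose, pH 7.4, then serially diluted in broth and grown 24–48 h. MMC was defined as ≥99.9% killing (no pellet at 1:10^3). SI was calculated as concentration giving 3% hemolysis in PBS divided by lowest MMC.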

E. coli ML35 [6] = test: Cell-suspension microbicidal assay (MMC); type: cell-based, Escherichia coli; conditions: lowest concentration that reduced cell viability by 99.9%; 10 mM PIPES, 5 mM glucose, pH 7.4; 2 h 37° C.
Method in brief: as §1

T1 sequence (P00722 2-1024): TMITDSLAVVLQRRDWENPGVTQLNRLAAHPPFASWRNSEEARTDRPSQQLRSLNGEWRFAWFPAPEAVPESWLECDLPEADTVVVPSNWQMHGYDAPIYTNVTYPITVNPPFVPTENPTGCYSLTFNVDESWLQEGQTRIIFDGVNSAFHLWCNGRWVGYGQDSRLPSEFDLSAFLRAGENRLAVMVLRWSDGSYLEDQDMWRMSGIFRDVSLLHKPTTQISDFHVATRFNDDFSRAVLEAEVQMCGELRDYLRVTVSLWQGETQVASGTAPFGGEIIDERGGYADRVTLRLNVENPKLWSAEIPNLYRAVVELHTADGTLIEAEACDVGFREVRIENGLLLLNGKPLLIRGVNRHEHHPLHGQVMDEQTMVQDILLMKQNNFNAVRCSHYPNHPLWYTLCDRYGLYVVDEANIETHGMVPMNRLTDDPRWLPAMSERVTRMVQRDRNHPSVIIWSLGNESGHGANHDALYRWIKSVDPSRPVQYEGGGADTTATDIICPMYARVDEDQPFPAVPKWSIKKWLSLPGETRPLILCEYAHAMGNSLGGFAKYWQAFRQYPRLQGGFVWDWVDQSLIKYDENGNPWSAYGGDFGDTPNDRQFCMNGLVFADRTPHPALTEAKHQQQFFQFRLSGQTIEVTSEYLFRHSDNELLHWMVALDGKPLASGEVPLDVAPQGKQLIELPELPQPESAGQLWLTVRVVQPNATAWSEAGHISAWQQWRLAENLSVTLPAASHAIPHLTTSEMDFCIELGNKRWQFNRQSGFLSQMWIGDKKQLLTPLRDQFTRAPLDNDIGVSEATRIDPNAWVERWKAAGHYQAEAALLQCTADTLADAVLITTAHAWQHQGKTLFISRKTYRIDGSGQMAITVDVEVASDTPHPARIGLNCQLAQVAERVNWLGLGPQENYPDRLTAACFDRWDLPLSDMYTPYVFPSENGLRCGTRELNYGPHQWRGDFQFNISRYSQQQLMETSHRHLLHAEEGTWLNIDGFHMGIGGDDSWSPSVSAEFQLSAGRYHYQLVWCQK

SMILES: CC(C)C[C@@H]1NC(=O)[C@@H]2CSSC[C@H](NC(=O)[C@H](CCCNC(=N)N)NC(=O)[C@@H]3CSSC[C@H](NC1=O)C(=O)N[C@@H](CCCNC(=N)N)C(=O)N[C@@H](CCCNC(=N)N)C(=O)NCC(=O)N[C@@H](C(C)C)C(=O)N3)C(=O)N[C@@H](CC(C)C)C(=O)N[C@H]1CSSC[C@H](NC(=O)[C@H](C(C)C)NC(=O)CNC(=O)[C@H](CCCNC(=N)N)NC(=O)[C@H](CCCNC(=N)N)NC1=O)C(=O)N[C@@H](CCCNC(=N)N)C(=O)N2 [RTD-3] (cyclo(CLCRRGVCRCLCRRGVCR); disulfide 1-10, 3-8, 12-17)
- amount of peptide required to achieve the microbicidal effect of RTD-1 and 2 (E. coli ML35 [1]; killing of E. coli, 2 h): approximately twice as much of the peptide was required
- activity against E. coli compared with RTD-1 and -2 (E. coli ML35 [1]; longer incubation times (4 or 6 h)): nearly equivalent
- ONPG hydrolysis (E. coli ML35 [2]): 9.2 (A405/sec) · 10^−5
- reduction of ONPG hydrolysis by purified β-galactosidase [3]: 50%
- MMC, C. albicans (C. albicans 16820): 1.0 µg/mL
- fold less active than RTD-1 and RTD-2 against E. coli (E. coli ML35 [4]): 2- to 3 fold
- MMC, S. aureus (S. aureus 502a): 1.0 µg/mL
- MMC, range over the test organisms ([5]; S. aureus, E. coli and C. albicans, 10 mM PIPES, 5 mM glucose, pH 7.4): 1 to 2 µg/mL
- M ([5]; peptide concentration that kill 99.9% of either S. aureus, E. coli, or C. albicans, lowest MMC value): 1 µg/mL
- MMC, E. coli (E. coli ML35 [6]): 2.0 µg/mL
